# According to US10959997B2, “Combined agent for cell therapy of corneal endothelial cell” (KYOTO PREFECTURAL PUBLIC UNIVERSITY CORPORATION, priority 2013, dated 2021):
# Where a name gives a salt, the structure may show the parent alone. Read-outs that look alike come from different tables or passages of the source.
# Assays:
# [1] = system: cultured monkey corneal endothelial cells; assay: Examination of number of adhering cells with CellTiter-Glo; type: cell-based, cynomolgus monkey
# [2] = system: paxillin phosphorylation; assay: Western blot of adhesion-related molecules (phospho paxillin); type: cell-based, cynomolgus monkey
# [3] = system: rabbit bullous keratopathy model; assay: Transplantation of cultured corneal endothelial cells in combination with inhibitor, injected into the anterior chamber; type: in vivo; details: for state of the anterior ocular section after transplantation (pictures): day 3, day 7, day 14
# Procedure: In primary culture of rabbit corneal endothelial cells, a Descemet's membrane including an endothelial cell layer was detached from a corneal tissue and 0.5 ml of Accutase (catalog number: AT104, Innovative Cell Technologies) was used for each eye, and incubated at 37° C. by using a water bath. After 20 minutes, a culture medium was added and pipetting was performed. The sample was centrifuged at 1200 rpm for 3 minutes to remove the supernatant. A culture medium was then added to a precipitated corneal endothelial cell mass for admixing. The entire amount was seeded on a 12-well plate coated with FNC Coating Mix (catalog No.: 0407; Athena Enzyme Systems, Baltimore, Md., USA). DMEM (catalog No.: 12320; Gibco-Invitrogen), to which 10% FBS, 1% Penicillin-Streptomycin Mixed Solution (catalog number: 26252-94; Nacalai Tesque), and 2 ng/ml basic fibroblast growth factor, catalog number: 13256-029; bFGF; Invitrogen) were added, was used as a culture medium.
# A medium was exchanged every other day. Subculture was performed when 50 to 80% confluence was reached. With respect to the subculturing method, cells were washed with Ca^2+Mg^2+-free PBS (PBS−; Nissui Pharmaceutical Co., Ltd., Tokyo, Japan), and 0.05% Trypsin-EDTA (catalog No.: 25300-054; Invitrogen) was added and incubated at 37° C. for 3 minutes. Cells were detached and collected from the plate. After the cells were centrifuged at 1500 rpm for 3 minutes, a culture medium was added to make a cell suspension. Cells were seeded on a plate coated with FNC Coating Mix at a density of 1:2-3.
# Rabbit corneal endothelial cells were detached with a soft tapered needle (Inami, M-563S) to make a bullous keratopathy model. Subsequently, 5.0×10^5 cultured rabbit corneal endothelial cells were suspended in 200 μl of Dulbecco's Modified Eagle Medium (DMEM) with blebbistatin adjusted to a final concentration of 10 μM. The suspension was injected into the anterior chamber and the corneal surface was maintained in a face-down position for three hours. A group injected with 5.0×10^5 rabbit corneal endothelial cells suspended into 200 μl of Dulbecco's Modified Eagle Medium (DMEM) with Y-27632 adjusted to a final concentration of 100 μM in the anterior chamber, a group subjected only to scraping off of corneal endothelial cells, and a group injected with 5.0×10^5 rabbit corneal endothelial cells suspended in a 200 μl of Dulbecco's Modified Eagle Medium (DMEM) into the anterior chamber were used as comparison groups.
# A rabbit bullous keratopathy model eye with the corneal endothelium scraped off was injected with 5.0×10^5 cultured rabbit corneal endothelial cells suspended in 200 μl of Dulbecco's Modified Eagle Medium (DMEM) with blebbistatin adjusted to a final concentration of 1 μM and 3 μM into the anterior chamber as in Example 3. […]
# [4] = system: myosin light chain (MLC) phosphorylation; assay: Western blot of Rho-ROCK pathway activity (phospho myosin light chain); type: cell-based, cynomolgus monkey
# Procedure: DMEM (Gibco-Invitrogen) to which Y-27632 was added such that the final concentration would be 10 μM and cultured monkey corneal endothelial cells were seeded. Over time, i.e., 0, 1, 3, and 24 hours thereafter, proteins extracted with RIPA buffer were subjected to electrophoresis with 7.5% polyacrylamide. DMEM (Gibco-Invitrogen) was used as a control. The separated protein was transcribed onto a PVDF membrane (PALL LIFE SCIENCE, catalog number: EH-2222). Blocking procedure was carried out by incubating a Tris buffered saline (10 mM Tris-HCl, pH 7.4, 100 mM NaCl) supplemented with 0.1% (vol/vol) polyethylene sorbitan monolaurate (Nacalai Tesque, catalog number: 28353-85) (TBS-T) and 5% non-fat dry milk (CELL SIGNALING, catalog number: 9999) and the blotted membrane for one hour. The membrane was then immersed in TBS-T supplemented with antibodies against Phospho Myosin Light Chain 2 (Thr18/Ser19) (CELL SIGNALING, catalog number: 3674), Phospho FAK (Y397) (D20B1) Rabbit mAb (CELL SIGNALING, catalog number: 8556), Phospho Paxillin (Tyr118) Antibody (CELL SIGNALING, catalog number: 2541), GAPDH (14C10) Rabbit mAb (CELL SIGNALING, catalog number: 2118) and diluted 1000-fold, and reacted for 1 hour at room temperature. […]
# [5] = system: type II myosin; details: enantiomer of blebbistatin; cited from earlier work
# [6] = system: focal adhesion kinase (FAK) phosphorylation; type: cell-based, cynomolgus monkey
# [7] = system: skeletal muscle myosin II; details: cited from earlier work
# [8] = system: non-muscle myosin II; details: cited from earlier work
# [9] = system: actin polymerization; details: cited from earlier work
compound,measurement,setting,value
"Cc1ccc2c(c1)C(=O)[C@]1(O)CCN(c3ccccc3)C1=N2 [blebbistatin, (S)-(−)-Blebbistatin]",number of adhering cells,"[1]; blebbistatin 100 μM, three hours from seeding, in comparison to the control (DMEM)",significantly increased
same,phosphorylation of paxillin,"[2]; blebbistatin 100 μM, 0, 1, 3 and 24 hours",phosphorylated at an early stage
same,concentration needed for therapy compared with Y-27632,"[3]; blebbistatin 1 μM, 3 μM, 10 μM versus Y-27632 100 μM",therapy was possible at a lower concentration relative to Y-27632
same,state of the anterior ocular section after transplantation (pictures),[3]; blebbistatin 10 μM with 5.0×10^5 cells in 200 μl DMEM,excellent as with Y-27632
same,MLC phosphorylation activity,"[4]; addition of blebbistatin, stated in the discussion",suppression of the MLC phosphorylation activity
same,effect as myosin II-specific inhibitor,[5],has an effect
"C[C@@H](N)[C@H]1CC[C@H](C(=O)Nc2ccncc2)CC1 [Y-27632, (R)-(+)-trans-(4-pyridyl)-4-(1-aminoethyl)-dihydrochloride cyclohexanecarboxamide monohydrate]",number of adhering cells,[1],significantly increased
same,phosphorylation of paxillin,[2],phosphorylated at an early stage
same,state of the anterior ocular section after transplantation (pictures),[3]; Y-27632 100 μM with 5.0×10^5 cells in 200 μl DMEM,excellent
same,concentration at which efficacy is exhibited,[3]; animal models with bullous keratopathy,10 to 100 µM
same,phosphorylation of FAK,[6],phosphorylated at an early stage
same,MLC phosphorylation,"[4]; Y-27632 10 μM, 0, 1, 3 and 24 hours",suppresses
"Cc1ccc2c(c1)C(=O)C1(O)CCN(c3ccccc3)C1=N2 (single isomer, unassigned; (+)) [(+) form]",effect as myosin II-specific inhibitor,[5],does not
"CC(=O)C(C)=NO [BDM, 2,3-butanedione monoxime]",action on skeletal muscle myosin II,[7],has action on skeletal muscle myosin II
same,inhibiting effect on non-muscle myosin II,[8],does not have an inhibiting effect
same,effect on actin polymerization,[9],inhibiting actin polymerization
